Results taken from patent publication US20250382346A1, “NEURONAL PROMOTERS AND USES THEREOF” (priority 2023, published 2025).

Target: T1, rM3Ds (Rattus norvegicus, UniProt P08483, A177S/A238G/A489L/DEL261-437/DEL441-478/E258S/I253V/I483M/INS256[…]/K178L/K182A/K255R/K484R/K486H/L173F/L482A/M480V/R171S/R176Q/R179M/S481M/T174R/T181R/T257A/Y148C)
T1 sequence (P08483 with tags, fused parts or gaps Y148C/R171S/L173F/T174R/R176Q/A177S/K178L/R179M/T181R/K182A/A238G/I253V/K255R/INS256[…]/T257A/E258S/DEL261-437/DEL441-478/M480V/S481M/L482A/I483M/K484R/K486H/A489L): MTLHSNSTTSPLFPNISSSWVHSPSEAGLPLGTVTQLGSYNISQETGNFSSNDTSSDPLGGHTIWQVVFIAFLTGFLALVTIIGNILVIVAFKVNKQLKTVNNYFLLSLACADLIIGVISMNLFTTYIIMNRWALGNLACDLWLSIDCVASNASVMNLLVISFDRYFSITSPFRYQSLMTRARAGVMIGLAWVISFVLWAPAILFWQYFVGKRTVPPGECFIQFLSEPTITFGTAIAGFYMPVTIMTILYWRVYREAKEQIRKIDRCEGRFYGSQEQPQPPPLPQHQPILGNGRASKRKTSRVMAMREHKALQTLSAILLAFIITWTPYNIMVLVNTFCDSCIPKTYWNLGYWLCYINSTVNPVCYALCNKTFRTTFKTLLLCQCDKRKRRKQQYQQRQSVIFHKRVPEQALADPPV
Test: 6-OHDA parkinsonian mouse model: open field and rotarod
Format: in vivo
Set-up: 2A-EYFP (C); expressed in transfected cells; host or cells: neurons (striatal D1-MSNs) of mice or cynomolgus macaques, transduced in vivo by nigral AAV8R12-G88P7-rM3Ds-2A-EYFP
Conditions: AAV8R12-G88P7-rM3Ds-2A-EYFP, 6-OHDA mice
Procedure: Rodent Parkinson's disease mice models were created through bilateral injection of 6-OHDA using the same methods as described in virus injections (Example 3). A total volume of 1 ul 6-OHDA (5 mg/ml, dissolved in sterile saline containing 0.02% ascorbic acid, Sigma) was injected into the striatum at a speed of 100 nL/min. The coordinates for striatum were 0.5 mm anterior, 1.5 mm lateral, 3.2 mm ventral to the bregma. A premedication of desipramine (25 mg/kg, Sigma) was administered to animals prior to injections of 6-OHDA, in order to increase the selectivity and efficacy of 6-OHDA-induced lesions. Mice were supplemented with DietGel (ClearH2O) for one-week post-surgery. All staining and behavioral experiments were performed at least 14 days following surgery, when the amount of dopamine depletion was maximal and stable.
To investigate the efficacy and safety of D1-MSN specific neuromodulation strategy, AAV8R12-G88P7-rM3Ds-2A-EYFP was injected into the SNr of adult C57/BL6 mice. 6-OHDA was administered bilaterally into the striatum (FIG. 13A). […]
Mice were individually handled for 10-20 seconds per day for at least 5 days to habituate them to the experimenter. […] The behavioral data were analyzed with ANY-maze software (Stoelting Co.).
Mice were individually handled as described in the open field test. […] Latency to fall for each trial was automatically recorded by the apparatus. […]

SMILES: C[N+]1([O-])CCN(C2=Nc3cc(Cl)ccc3Nc3ccccc32)CC1 [CNO, Clozapine-N-oxide]
- motor skill, rotarod test (CNO): partially rescued the motor skill deficit
- spontaneous movement in an open field (systemic CNO): drastically reversed the dyskinesia-like phenotype of PD mice
